We go through 34 molecules from patent US11780839B2, “Compounds for treating Huntington's disease” (PTC THERAPEUTICS, INC., priority 2018, dated 2023).

pIC50: −log10 of the molar value.

By pIC50 is commonly meant the negative decadic logarithm of the IC50, by convention in mol/L. Low readings indicate a high IC50, high ones a low IC50.

This assay relates to Endogenous Huntingtin Protein. As to the kind of experiment: Endogenous Huntingtin Protein Assay (ELISA-based Meso Scale Discovery electrochemiluminescence). Type of assay: cell-based. The settings on record: MSD electrochemiluminescence, Table 1. In a few lines: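 Sandwich MSD electrochemiluminescence immunoassay. Capture used MW1 (expanded polyglutamine) or MAB2166 antibody coated at 1 μg/mL overnight at 4 °C. Samples were bound overnight at 4 °C, then a rabbit monoclonal detection antibody and SULFO-TAG anti-rabbit, each at 0.25 μg/mL, were applied for 1 h at room temperature.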
For orientation: ELISA stands for enzyme-linked immunosorbent assay.
As to `OCCCNC1CCN(c2ncc(-c3ccc(-c4cn[nH]c4)cc3O)nn2)C1` (stereo not shown) [Cpd 371, 2-(3-{3-[(3-hydroxypropyl)amino]pyrrolidin-1-yl}-1,2,4-triazin-6-yl)-5-(1H-pyrazol-4-yl)phenol], the negative logarithm of the IC50 (pIC50) was at least 7.00.

On to `CN1CCC2(CC1)CN(c1ncc(-c3ccc(-c4ccc5nccn5n4)cc3O)nn1)C2` [Cpd 256, 5-(imidazo[1,2-b]pyridazin-6-yl)-2-[3-(7-methyl-2,7-diazaspiro[3.5]nonan-2-yl)-1,2,4-triazin-6-yl]phenol], for which the negative logarithm of the IC50 (pIC50) is 6.30 to 7.00.

As to `CN(c1ncc(-c2ccc(-c3ncc(F)cn3)cc2O)nn1)C1CC(C)(C)NC(C)(C)C1` [Cpd 112, 5-(5-fluoropyrimidin-2-yl)-2-{3-[methyl(2,2,6,6-tetramethylpiperidin-4-yl)amino]-1,2,4-triazin-6-yl}phenol], the pIC50 was 6.30 to 7.00.

On to `CC1CC(Oc2ncc(-c3ccc(-c4cn[nH]c4)cc3O)nn2)CC(C)N1` (stereo not shown) [Cpd 82, 2-{3-[(2,6-dimethylpiperidin-4-yl)oxy]-1,2,4-triazin-6-yl}-5-(1H-pyrazol-4-yl)phenol], for which the pIC50 was 6.30 to 7.00.

Molecule `CN1CCC[C@H]2CN(c3ncc(-c4ccc(-c5cn[nH]c5)cc4O)nn3)C[C@H]21` [Cpd 310, 2-{3-[(4aS,7aS)-1-methyloctahydro-6H-pyrrolo[3,4-b]pyridin-6-yl]-1,2,4-triazin-6-yl}-5-(1H-pyrazol-4-yl)phenol] showed a negative-log IC50 (pIC50) of 6.30 to 7.00.

Molecule `CC(C)(C)NC1CCN(c2ncc(-c3ccc(-c4cn[nH]c4)c(F)c3O)nn2)C1` (stereo not shown) [Cpd 418, 6-{3-[3-(tert-butylamino)pyrrolidin-1-yl]-1,2,4-triazin-6-yl}-2-fluoro-3-(1H-pyrazol-4-yl)phenol] showed a pIC50 of at least 7.00.

`CN(c1ncc(-c2ccc(-c3c[nH]nc3Cl)cc2O)nn1)C1CC(C)(C)NC(C)(C)C1` [Cpd 57, 5-(3-chloro-1H-pyrazol-4-yl)-2-{3-[methyl(2,2,6,6-tetramethylpiperidin-4-yl)amino]-1,2,4-triazin-6-yl}phenol]: the pIC50 is at least 7.00.

For `CN(c1ncc(-c2ccc(-c3cc(CO)ncn3)cc2O)nn1)C1CC(C)(C)NC(C)(C)C1` [Cpd 179, 5-[6-(hydroxymethyl)pyrimidin-4-yl]-2-{3-[methyl(2,2,6,6-tetramethylpiperidin-4-yl)amino]-1,2,4-triazin-6-yl}phenol], the pIC50 was at least 7.00.

In turn, `CN(c1ncc(-c2ccc(-c3cccnc3)cc2O)nn1)C1CC(C)(C)NC(C)(C)C1` [Cpd 70, 2-{3-[methyl(2,2,6,6-tetramethylpiperidin-4-yl)amino]-1,2,4-triazin-6-yl}-5-(pyridin-3-yl)phenol] had a negative logarithm of the IC50 (pIC50) of 6.30 to 7.00.

`N[C@@H]1CN(c2ncc(-c3ccc(-c4cn[nH]c4)cc3O)nn2)CC12CC2` [Cpd 115, 2-{3-[(7S)-7-amino-5-azaspiro[2.4]heptan-5-yl]-1,2,4-triazin-6-yl}-5-(1H-pyrazol-4-yl)phenol] had a pIC50 of 6.30 to 7.00.

Turning to `CN(c1ncc(-c2ccc(-c3ccnc(O)c3)cc2O)nn1)C1CC(C)(C)NC(C)(C)C1` [Cpd 5, 4-(3-hydroxy-4-{3-[methyl(2,2,6,6-tetramethylpiperidin-4-yl)amino}-1,2,4-triazin-6-yl}phenyl)pyridin-2-ol], the negative-log IC50 (pIC50) was at least 7.00.

In turn, `CC1(C)CC(Nc2ncc(-c3ccc(-n4cnc(F)c4)cc3O)nn2)CC(C)(C)N1` [Cpd 275, 5-(4-fluoro-1H-imidazol-1-yl)-2-{3-[(2,2,6,6-tetramethylpiperidin-4-yl)amino]-1,2,4-triazin-6-yl}phenol] gave a pIC50 of at least 7.00.

As to `CN(c1ncc(-c2ccc(-c3ccc4c(nnn4C)n3)cc2O)nn1)C1CC(C)(C)NC(C)(C)C1` [Cpd 186, 2-{3-[methyl(2,2,6,6-tetramethylpiperidin-4-yl)amino]-1,2,4-triazin-6-yl}-5-(1-methyl-1H-[1,2,3]triazolo[4,5-b]pyridin-5-yl)phenol], the negative logarithm of the IC50 (pIC50) was at least 7.00.

The molecule `CN1CCC2(CC1)CN(c1ncc(-c3ccc(-c4cnn(C)n4)cc3O)nn1)C2` [Cpd 242, 2-[3-(7-methyl-2,7-diazaspiro[3.5]nonan-2-yl)-1,2,4-triazin-6-yl]-5-(2-methyl-2H-1,2,3-triazol-4-yl)phenol] showed a negative logarithm of the IC50 (pIC50) of at least 7.00.

Take `CN(c1ncc(-c2ccc(-n3cc(F)cn3)cc2O)nn1)C1CC(C)(C)NC(C)(C)C1` [Cpd 93, 5-(4-fluoro-1H-pyrazol-1-yl)-2-{3-[methyl(2,2,6,6-tetramethylpiperidin-4-yl)amino]-1,2,4-triazin-6-yl}phenol]: the negative logarithm of the IC50 (pIC50) was at least 7.00.

The molecule `CC(C)(C)NC1CCN(c2ncc(-c3ccc(-n4nccn4)cc3O)nn2)C1` (stereo not drawn) [Cpd 204, 2-{3-[3-(tert-butylamino)pyrrolidin-l-yl]-1,2,4-triazin-6-yl}-5-(2H-1,2,3-triazol-2-yl)phenol] had a pIC50 of at least 7.00.

With `CN(c1ncc(-c2ccc(-c3cc(F)c4[nH]cnc4c3)cc2O)nn1)C1CC(C)(C)NC(C)(C)C1` [Cpd 280, 5-(7-fluoro-1H-benzimidazol-5-yl)-2-{3-[methyl(2,2,6,6-tetramethylpiperidin-4-yl)amino]-1,2,4-triazin-6-yl}phenol], the negative logarithm of the IC50 (pIC50) is at least 7.00.

`Cn1ncc(-c2ccc(-c3cnc(N[C@H]4CC(C)(C)NC(C)(C)[C@H]4F)nn3)c(O)c2)n1` [Cpd 287, 2-(3-{[(3S,4S)-3-fluoro-2,2,6,6-tetramethylpiperidin-4-yl]amino}-1,2,4-triazin-6-yl)-5-(2-methyl-2H-1,2,3-triazol-4-yl)phenol]: the negative-log IC50 (pIC50) is at least 7.00.

Turning to `COCC(C)NC1CCN(c2ncc(-c3ccc(-c4cn[nH]c4)cc3O)nn2)C1` (stereo not shown) [Cpd 336, 2-(3-{3-[(1-methoxypropan-2-yl)amino]pyrrolidin-1-yl}-1,2,4-triazin-6-yl)-5-(1H-pyrazol-4-yl)phenol], the pIC50 was at least 7.00.

Consider `CN(c1ncc(-c2ccc(-c3ccc(O)cc3)cc2O)nn1)C1CC(C)(C)NC(C)(C)C1` [Cpd 103, 4-{3-[methyl(2,2,6,6-tetramethylpiperidin-4-yl)amino]-1,2,4-triazin-6-yl}[1,1'-biphenyl]-3,4’-diol], for which the pIC50 is at least 7.00.

As to `COc1cc(-c2ccc(-c3cnc(N4CC5(CCN(C)CC5)C4)nn3)c(O)c2)ncn1` [Cpd 243, 5-(6-methoxypyrimidin-4-yl)-2-[3-(7-methyl-2,7-diazaspiro[3.5]nonan-2-yl)-1,2,4-triazin-6-yl]phenol], the negative-log IC50 (pIC50) is at least 7.00.

As to `Cn1nnc2nc(-c3ccc(-c4cnc(N5CCC(NC(C)(C)C)C5)nn4)c(O)c3)ccc21` (stereo not shown) [Cpd 215, 2-{3-[3-(tert-butylamino)pyrrolidin1-yl]-1,2,4-triazin-6-yl}-5-(1-methyl-1H-[1,2,3]triazolo[4,5-b]pyridin-5-yl)phenol], the pIC50 is 6.30 to 7.00.

With `CN(c1ncc(-c2ccc(-c3ccn(C)c(=O)c3)cc2O)nn1)C1CC(C)(C)NC(C)(C)C1` [Cpd 56], the negative logarithm of the IC50 (pIC50) was at least 7.00.

Regarding `CC(C)(C)NC1CCCN(c2ncc(-c3ccc(-c4cn[nH]c4)cc3O)nn2)C1` (stereo not shown) [Cpd 212, 2-{3-[3-(tert-butylamino)piperidin-1-yl]-1,2,4-triazin-6-yl}-5-(1H-pyrazol-4-yl)phenol], the negative-log IC50 (pIC50) is 6.30 to 7.00.

`CC(C)(C)N[C@@H]1CCN(c2ncc(-c3ccc(-c4cn[nH]c4)cc3O)nn2)C1` [Cpd 356, 2-{3-[(3R)-3-(tert-butylamino)pyrrolidin-l-yl]-1,2,4-triazin-6-yl}-5-(1H-pyrazol-4-yl)phenol] gave a negative logarithm of the IC50 (pIC50) of at least 7.00.

Regarding `Cc1cn(-c2ccc(-c3cnc(N[C@H]4CC(C)(C)NC(C)(C)[C@H]4F)nn3)c(O)c2)cn1` [Cpd 239, 2-{3-{[(3S,4S)-3-fluoro-2,2,6,6-tetramethylpiperidin-4-yl]amino}-1,2,4-triazin-6-yl)-5-(4-methyl-1H-imidazol-1-yl)phenol], the pIC50 is at least 7.00.

In turn, `Cc1cn(-c2ccc(-c3cnc(N4CCC(NC(C)(C)C)C4)nn3)c(O)c2)cn1` (stereo not drawn) [Cpd 197, 2-{3-[3-(tert-butylamino)pyrrolidin-l-yl]-1,2,4-triazin-6-yl}-5-(4-methyl-1H-imidazol-1-yl)phenol] gave a pIC50 of 6.30 to 7.00.

The molecule `CN1CCC2(CC1)CN(c1ncc(-c3ccc(-c4c[nH]nc4F)cc3O)nn1)C2` [Cpd 149, 5-(3-fluoro-1H-pyrazol-4-yl)-2-[3-(7-methyl-2,7-diazaspiro[3.5]nonan-2-yl)-1,2,4-triazin-6-yl]phenol] gave a negative-log IC50 (pIC50) of at least 7.00.

On to `[2H]C([2H])([2H])n1cc(-c2ccc(-c3cnc(N4CCC(NC(C)(C)C)C4)nn3)c(O)c2)cn1` (stereo not drawn) [Cpd 367, 2-{3-[3-(tert-butylamino)pyrrolidin-l-yl]-1,2,4-triazin-6-yl}-5-[1-(^2H3)methyl-1H-pyrazol-4-yl]phenol], for which the negative logarithm of the IC50 (pIC50) is at least 7.00.

Turning to `CN(c1ncc(-c2ccc(-n3ncc([N+](=O)[O-])n3)cc2O)nn1)C1CC(C)(C)NC(C)(C)C1` [Cpd 99, 2-{3-[methyl(2,2,6,6-tetramethylpiperidin-4-yl)amino]-1,2,4-triazin-6-yl}-5-(4-nitro-2H-1,2,3-triazol-2-yl)phenol], the negative-log IC50 (pIC50) is at least 7.00.

Molecule `CN(c1ncc(-c2ccc(-c3ccccn3)cc2O)nn1)C1CC(C)(C)NC(C)(C)C1` [Cpd 71, 2-{3-[methyl(2,2,6,6-tetramethylpiperidin-4-yl)amino]-1,2,4-triazin-6-yl}-5-(pyridin-2-yl)phenol] showed a pIC50 of at least 7.00.

In the case of `CN(c1cnc(-c2ccc(-c3cccnc3)cc2O)nn1)C1CC(C)(C)NC(C)(C)C1` [Cpd 384, 2-{6-[methyl(2,2,6,6-tetramethylpiperidin-4-yl)amino]-1,2,4-triazin-3-yl}-5-(pyridin-3-yl)phenol], the pIC50 is at least 7.00.

Consider `CCN(CC)C1C2CN(c3ncc(-c4ccc(-c5cn[nH]c5)cc4O)nn3)CC21` (stereo not shown) [Cpd 127, 2-{3-[6-(diethylamino)-3-azabicyclo[3.1.0]hexan-3-yl]-1,2,4-triazin-6-yl}-5-(1H-pyrazol-4-yl)phenol], for which the pIC50 was 6.30 to 7.00.

`CC(C)(C)NC1CCN(c2ncc(-c3ccc(-c4cn[nH]c4)cc3O)nn2)CC1` [Cpd 206, 2-{3-[4-(tert-butylamino)piperidin-l-yl]-1,2,4-triazin-6-yl}-5-(1H-pyrazol-4-yl)phenol] gave a negative-log IC50 (pIC50) of 5.52 to 6.00.
